Reference: BindingDB's records for PubMed 17827 (1977)
pKi: −log10 of the molar value. Several values for one entry are separate records, joined by “and”; a condition that tells them apart may be missing. Equal entries are not always repeated.

target: T1, Alpha-1A adrenergic receptor (Rattus norvegicus, UniProt P43140)
T1 sequence (P43140 whole entry): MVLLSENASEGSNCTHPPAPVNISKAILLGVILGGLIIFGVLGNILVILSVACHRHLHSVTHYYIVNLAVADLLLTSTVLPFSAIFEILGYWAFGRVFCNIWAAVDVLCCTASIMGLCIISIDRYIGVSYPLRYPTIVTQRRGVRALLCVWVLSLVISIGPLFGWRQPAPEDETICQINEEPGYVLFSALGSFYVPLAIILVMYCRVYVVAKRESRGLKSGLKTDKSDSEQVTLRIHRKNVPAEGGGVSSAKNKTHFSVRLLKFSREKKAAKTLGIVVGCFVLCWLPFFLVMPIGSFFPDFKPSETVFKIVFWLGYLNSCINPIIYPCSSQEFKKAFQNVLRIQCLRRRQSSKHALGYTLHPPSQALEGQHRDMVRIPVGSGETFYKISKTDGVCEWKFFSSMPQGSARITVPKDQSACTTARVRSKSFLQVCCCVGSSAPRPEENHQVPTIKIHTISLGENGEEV

**Q.** `N[C@H]1C[C@@H]1c1ccccc1` [(1S,2R)-(+)-2-phenylcyclopropylamine] was tested. Which pKi did it give?
**A.** The pKi was 6.03 and 5.15.

**Q.** With `c1ccc2c(c1)OCC(CN1CCN(CC3COc4ccccc4O3)CC1)O2` (stereo unspecified) [CAS_7762-32-5] as the compound, how does the pKi read?
**A.** Its pKi is 7.00 and 7.72.

**Q.** With `NCC(O)c1ccc(O)cc1` (racemic) [Octopamine,(+/-)] as the compound, how does the pKi read?
**A.** The pKi was 5.81 and 4.96.

**Q.** With `N=c1nc(N2CCCCC2)cc(N)n1O` [NSC_4201] as the compound, how does the pKi read?
**A.** Its pKi is < 4.22 and 4.54.

**Q.** How did the pKi turn out when `CN1C[C@H](C(=O)N[C@]2(C)O[C@@]3(O)[C@@H]4CCCN4C(=O)[C@H](Cc4ccccc4)N3C2=O)C=C2c3cccc4[nH]cc(c34)C[C@H]21` [12'-hydroxy-2'-methyl-5'alpha-(phenylmethyl)ergotaman-3',6',18-trione] was run?
**A.** The pKi was 7.92.

**Q.** With `CC(C)C[C@H]1C(=O)N2CCC[C@H]2[C@]2(O)O[C@](NC(=O)[C@@H]3C=C4c5cccc6[nH]c(Br)c(c56)C[C@H]4N(C)C3)(C(C)C)C(=O)N12` [Bromocriptine+ (GTP+)] as the compound, how does the pKi read?
**A.** The pKi was 8.05 and 7.80.

**Q.** `CNC(=S)NCCCCc1cnc[nH]1` [1-[4-(1H-imidazol-5-yl)butyl]-3-methylthiourea] was tested. Which pKi did it give?
**A.** Its pKi is 5.99 and 5.72.

**Q.** `CN1CC(C(=O)N[C@]2(C)O[C@@]3(O)C4CCCN4C(=O)[C@H](Cc4ccccc4)N3C2=O)CC2c3cccc4[nH]cc(c34)CC21` (stereo partly drawn) [7-Methyl-4,6,6a,7,8,9,10,10a-octahydro-indolo[4,3-fg]quinoline-9-carboxylic acid ((2R,5S,10bS)-5-benzyl-10b-hydroxy-2-methyl-3,6-dioxo-octahydro-oxazolo[3,2-a]pyrrolo[2,1-c]pyrazin-2-yl)-amide] was tested. Which pKi did it give?
**A.** The pKi was 8.62 and 8.46.

**Q.** With `C[C@H](N)Cc1ccccc1` [beta-aminopropylbenzene] as the compound, how does the pKi read?
**A.** Its pKi is 5.80 and 5.00 and 5.66 and 4.92.

**Q.** `CN(C)CCC=C1c2ccccc2CCc2ccccc21` was tested. Which pKi did it give?
**A.** The pKi was 6.28.

**Q.** With `CC(C)C1(NC(=O)C2CC3c4cccc5[nH]cc(c45)CC3N(C)C2)OC2(O)C3CCCN3C(=O)C(Cc3ccccc3)N2C1=O` (stereo unspecified) [Dihydroergocristine] as the compound, how does the pKi read?
**A.** The pKi was 8.00 and 8.62.

**Q.** How did the pKi turn out when `NCCc1ccc(O)cc1` was run?
**A.** Its pKi is 5.23 and 4.64.

**Q.** How did the pKi turn out when `CN1C2CCC1CC(OC(c1ccccc1)c1ccccc1)C2` (stereo unspecified) was run?
**A.** The pKi was 6.38 and 7.33.

**Q.** `C#CCN(C)Cc1ccccc1` [N-benzyl-N-methylprop-2-yn-1-amine] was tested. Which pKi did it give?
**A.** The pKi was 4.85 and < 4.15.

**Q.** With `OC(CCN1CCCCC1)(c1ccccc1)C1CCCCC1` (stereo unspecified) [NSC_5572] as the compound, how does the pKi read?
**A.** Its pKi is 5.30 and 4.74.

**Q.** How did the pKi turn out when `COc1cc2c3cc1Oc1cc(ccc1O)C[C@H]1c4c(cc(OC)c(O)c4Oc4ccc(cc4)C[C@@H]3N(C)CC2)CC[N+]1(C)C` [CAS_57-94-3] was run?
**A.** Its pKi is < 4.22 and 5.16.

**Q.** `CC(C)NC[C@@H](O)c1ccc(O)c(O)c1` was tested. Which pKi did it give?
**A.** The pKi was 4.42 and < 4.15.

**Q.** How did the pKi turn out when `CCN(CC)C(=O)[C@@H]1C=C2c3cccc4[nH]cc(c34)C[C@H]2N(C)C1` [(4R,7R)-N,N-diethyl-6-methyl-6,11-diazatetracyclo[7.6.1.0^{2,7}.0^{12,16}]hexadeca-1(16),2,9,12,14-pentaene-4-carboxamide] was run?
**A.** Its pKi is 6.66.

**Q.** With `CN1CCc2cccc3c2[C@H]1Cc1ccc(O)c(O)c1-3` [APOKYN] as the compound, how does the pKi read?
**A.** The pKi was 6.02 and 5.64.

**Q.** `NCCc1c[nH]c2ccc(O)cc12` [[3H]-5-HT] was tested. Which pKi did it give?
**A.** The pKi was 4.74 and 4.64.

**Q.** How did the pKi turn out when `C[C@@H](N)Cc1ccc(O)cc1` [CAS_103-86-6] was run?
**A.** The pKi was 5.30 and 4.41.

**Q.** `NNc1nncc2ccccc12` [NSC_3637] was tested. Which pKi did it give?
**A.** Its pKi is 5.11 and 4.28.

**Q.** With `CC(C)[C@@]1(NC(=O)[C@@H]2C=C3c4cccc5[nH]cc(c45)C[C@H]3N(C)C2)O[C@@]2(O)[C@@H]3CCCN3C(=O)[C@H](Cc3ccccc3)N2C1=O` [SMR000058447] as the compound, how does the pKi read?
**A.** Its pKi is 7.74 and 8.20.

**Q.** With `CC(CO)NC(=O)C1C=C2c3cccc4[nH]cc(c34)CC2N(C)C1` (stereo unspecified) [CAS_60-79-7] as the compound, how does the pKi read?
**A.** Its pKi is 5.85 and 5.74.

**Q.** How did the pKi turn out when `CC(C)C1C(=O)N2CCCC2C2(O)OC(NC(=O)C3CC4c5cccc6[nH]cc(c56)CC4N(C)C3)(C(C)C)C(=O)N12` (stereo unspecified) [NSC_168871] was run?
**A.** Its pKi is 8.05 and 8.43.

**Q.** How did the pKi turn out when `CC(C)C[C@H]1C(=O)N2CCCC2[C@]2(O)O[C@](NC(=O)[C@@H]3C=C4c5cccc6[nH]cc(c56)CC4N(C)C3)(C(C)C)C(=O)N12` (stereo partly drawn) [ALPHA-ERGOCRYPTINE] was run?
**A.** The pKi was 8.10 and 8.05.

**Q.** `CC(C)C[C@H]1C(=O)N2CCC[C@H]2[C@]2(O)O[C@](NC(=O)[C@@H]3C[C@@H]4c5cccc6[nH]cc(c56)C[C@H]4N(C)C3)(C(C)C)C(=O)N12` [NSC_159729] was tested. Which pKi did it give?
**A.** Its pKi is 8.15 and 8.62.

**Q.** How did the pKi turn out when `CC(C)[C@H]1C(=O)N2CCC[C@H]2[C@]2(O)O[C@](NC(=O)[C@@H]3C=C4c5cccc6[nH]cc(c56)C[C@H]4N(C)C3)(C(C)C)C(=O)N12` [ERGOCORNINE] was run?
**A.** Its pKi is 7.96 and 8.00.

**Q.** With `CCCCCC(C)N` (stereo unspecified) [Tuaminoheptane] as the compound, how does the pKi read?
**A.** The pKi was 5.15 and 4.17.

**Q.** With `ClCCN(Cc1ccccc1)Cc1ccccc1` [NSC_5820] as the compound, how does the pKi read?
**A.** Its pKi is 6.57 and 7.08.

**Q.** How did the pKi turn out when `CC[C@@H](CO)NC(=O)[C@@H]1C=C2c3cccc4c3c(cn4C)C[C@H]2N(C)C1` was run?
**A.** The pKi was 5.33 and 5.72.
